In the NIST ThermoML archive (doi:10.1021/je400056z):

Assay: xn = mol fraction of the nth substance listed
Conditions: Liquid, Vibrating tube method

CCCCCCC [heptane] + O=C=O
Conditions | mass density [kg/m3]
312.02 K, 10986 kPa, x2 = 0.9496 | 729.05
312.02 K, 12001 kPa, x2 = 0.9496 | 747.88
312.02 K, 13001 kPa, x2 = 0.9496 | 763.05
312.02 K, 13981 kPa, x2 = 0.9496 | 776.11
312.02 K, 15000 kPa, x2 = 0.9496 | 787.02
312.02 K, 16006 kPa, x2 = 0.9496 | 797.48
312.02 K, 16997 kPa, x2 = 0.9496 | 806.48
312.02 K, 18005 kPa, x2 = 0.9496 | 814.74
312.02 K, 19001 kPa, x2 = 0.9496 | 822.53
312.02 K, 19995 kPa, x2 = 0.9496 | 829.62
312.02 K, 20996 kPa, x2 = 0.9496 | 836.32
312.02 K, 22002 kPa, x2 = 0.9496 | 842.78
312.02 K, 23003 kPa, x2 = 0.9496 | 848.74
312.02 K, 24007 kPa, x2 = 0.9496 | 854.47
312.02 K, 24361 kPa, x2 = 0.9496 | 856.44
312.94 K, 5011 kPa, x2 = 0.3148 | 693.37
312.94 K, 6008 kPa, x2 = 0.3148 | 694.74
312.94 K, 7004 kPa, x2 = 0.3148 | 696.16
312.94 K, 8002 kPa, x2 = 0.3148 | 697.62
312.94 K, 8997 kPa, x2 = 0.3148 | 699.03
312.94 K, 9991 kPa, x2 = 0.3148 | 700.6
312.94 K, 11000 kPa, x2 = 0.3148 | 701.81
312.94 K, 12009 kPa, x2 = 0.3148 | 703.08
312.94 K, 13002 kPa, x2 = 0.3148 | 704.39
312.94 K, 13992 kPa, x2 = 0.3148 | 705.63
312.94 K, 15009 kPa, x2 = 0.3148 | 706.99
312.94 K, 16009 kPa, x2 = 0.3148 | 708.23
312.94 K, 16997 kPa, x2 = 0.3148 | 709.2
312.94 K, 18018 kPa, x2 = 0.3148 | 710.45
312.94 K, 19015 kPa, x2 = 0.3148 | 711.73
312.94 K, 20006 kPa, x2 = 0.3148 | 712.83
312.94 K, 21008 kPa, x2 = 0.3148 | 713.93
312.94 K, 22010 kPa, x2 = 0.3148 | 715.06
312.94 K, 23004 kPa, x2 = 0.3148 | 716.14
312.94 K, 24017 kPa, x2 = 0.3148 | 717.34
312.94 K, 24997 kPa, x2 = 0.3148 | 718.41
312.98 K, 7014 kPa, x2 = 0.7514 | 729.2
312.98 K, 8012 kPa, x2 = 0.7514 | 733.47
312.98 K, 8996 kPa, x2 = 0.7514 | 737.34
312.98 K, 10005 kPa, x2 = 0.7514 | 741.22
312.98 K, 10989 kPa, x2 = 0.7514 | 744.88
312.98 K, 12007 kPa, x2 = 0.7514 | 748.38
312.98 K, 12994 kPa, x2 = 0.7514 | 751.74
312.98 K, 14005 kPa, x2 = 0.7514 | 754.92
312.98 K, 14990 kPa, x2 = 0.7514 | 758
312.98 K, 16009 kPa, x2 = 0.7514 | 761.15
312.98 K, 17002 kPa, x2 = 0.7514 | 764.01
312.98 K, 17990 kPa, x2 = 0.7514 | 766.8
312.98 K, 19008 kPa, x2 = 0.7514 | 769.54
312.98 K, 20006 kPa, x2 = 0.7514 | 772.19
312.98 K, 21018 kPa, x2 = 0.7514 | 774.69
312.98 K, 21997 kPa, x2 = 0.7514 | 777.23
312.98 K, 23004 kPa, x2 = 0.7514 | 779.67
312.98 K, 23994 kPa, x2 = 0.7514 | 782.07
312.98 K, 24571 kPa, x2 = 0.7514 | 783.46
313.03 K, 5011 kPa, x2 = 0.5085 | 706.14
313.03 K, 6005 kPa, x2 = 0.5085 | 708.31
313.03 K, 7004 kPa, x2 = 0.5085 | 710.37
313.03 K, 8011 kPa, x2 = 0.5085 | 712.42
313.03 K, 8996 kPa, x2 = 0.5085 | 714.37
313.03 K, 10001 kPa, x2 = 0.5085 | 716.4
313.03 K, 11006 kPa, x2 = 0.5085 | 718.29
313.03 K, 11994 kPa, x2 = 0.5085 | 720.05
313.03 K, 13000 kPa, x2 = 0.5085 | 721.92
313.03 K, 14002 kPa, x2 = 0.5085 | 723.71
313.03 K, 15010 kPa, x2 = 0.5085 | 725.36
313.03 K, 16006 kPa, x2 = 0.5085 | 727.16
313.03 K, 17002 kPa, x2 = 0.5085 | 728.84
313.03 K, 18023 kPa, x2 = 0.5085 | 730.55
313.03 K, 19009 kPa, x2 = 0.5085 | 732.08
313.03 K, 20003 kPa, x2 = 0.5085 | 733.69
313.03 K, 21000 kPa, x2 = 0.5085 | 735.25
313.03 K, 22016 kPa, x2 = 0.5085 | 736.75
313.03 K, 23006 kPa, x2 = 0.5085 | 738.31
313.03 K, 24019 kPa, x2 = 0.5085 | 739.74
313.03 K, 25004 kPa, x2 = 0.5085 | 741.18
313.08 K, 2007 kPa, x2 = 0.0218 | 670.88
313.08 K, 3009 kPa, x2 = 0.0218 | 671.95
313.08 K, 4008 kPa, x2 = 0.0218 | 673.02
313.08 K, 5014 kPa, x2 = 0.0218 | 674.05
313.08 K, 6010 kPa, x2 = 0.0218 | 675.07
313.08 K, 7005 kPa, x2 = 0.0218 | 676.19
313.08 K, 8174 kPa, x2 = 0.0218 | 677.13
313.08 K, 9005 kPa, x2 = 0.0218 | 678.13
313.08 K, 10008 kPa, x2 = 0.0218 | 679.18
313.08 K, 11000 kPa, x2 = 0.0218 | 680.15
313.08 K, 12009 kPa, x2 = 0.0218 | 681.11
313.08 K, 13002 kPa, x2 = 0.0218 | 682.02
313.08 K, 14006 kPa, x2 = 0.0218 | 683
313.08 K, 15004 kPa, x2 = 0.0218 | 683.85
313.08 K, 16007 kPa, x2 = 0.0218 | 684.89
313.08 K, 17002 kPa, x2 = 0.0218 | 685.71
313.08 K, 18005 kPa, x2 = 0.0218 | 686.44
313.08 K, 19010 kPa, x2 = 0.0218 | 687.37
313.08 K, 20009 kPa, x2 = 0.0218 | 688.24
313.08 K, 21004 kPa, x2 = 0.0218 | 689.1
313.08 K, 22010 kPa, x2 = 0.0218 | 689.97
313.08 K, 23003 kPa, x2 = 0.0218 | 690.81
313.08 K, 24007 kPa, x2 = 0.0218 | 691.63
313.08 K, 24906 kPa, x2 = 0.0218 | 692.41
322.85 K, 5012 kPa, x2 = 0.3148 | 682.49
322.85 K, 6012 kPa, x2 = 0.3148 | 684.11
322.85 K, 7008 kPa, x2 = 0.3148 | 685.75
322.85 K, 8009 kPa, x2 = 0.3148 | 687.35
322.85 K, 8996 kPa, x2 = 0.3148 | 688.86
322.85 K, 10005 kPa, x2 = 0.3148 | 690.36
322.85 K, 11012 kPa, x2 = 0.3148 | 691.87
322.85 K, 11996 kPa, x2 = 0.3148 | 693.32
322.85 K, 13003 kPa, x2 = 0.3148 | 694.75
322.85 K, 14006 kPa, x2 = 0.3148 | 696.09
322.85 K, 15010 kPa, x2 = 0.3148 | 697.48
322.85 K, 16003 kPa, x2 = 0.3148 | 698.79
322.85 K, 17009 kPa, x2 = 0.3148 | 700.14
322.85 K, 18001 kPa, x2 = 0.3148 | 701.39
322.85 K, 19012 kPa, x2 = 0.3148 | 702.67
322.85 K, 20007 kPa, x2 = 0.3148 | 703.86
322.85 K, 21000 kPa, x2 = 0.3148 | 705.12
322.85 K, 22017 kPa, x2 = 0.3148 | 706.33
322.85 K, 23010 kPa, x2 = 0.3148 | 707.55
322.85 K, 23985 kPa, x2 = 0.3148 | 708.71
322.85 K, 25004 kPa, x2 = 0.3148 | 709.93
322.91 K, 8013 kPa, x2 = 0.7514 | 707.83
322.91 K, 8994 kPa, x2 = 0.7514 | 712.85
322.91 K, 10015 kPa, x2 = 0.7514 | 717.65
322.91 K, 10996 kPa, x2 = 0.7514 | 722.08
322.91 K, 12005 kPa, x2 = 0.7514 | 726.29
322.91 K, 13025 kPa, x2 = 0.7514 | 730.31
322.91 K, 13986 kPa, x2 = 0.7514 | 733.99
322.91 K, 15009 kPa, x2 = 0.7514 | 737.66
322.91 K, 16002 kPa, x2 = 0.7514 | 741.14
322.91 K, 17007 kPa, x2 = 0.7514 | 744.51
322.91 K, 17997 kPa, x2 = 0.7514 | 747.63
322.91 K, 19009 kPa, x2 = 0.7514 | 750.74
322.91 K, 20004 kPa, x2 = 0.7514 | 753.71
322.91 K, 21008 kPa, x2 = 0.7514 | 756.6
